Data published in US6703376B2, “Use of uridine triphosphates and related compounds for the prevention and treatment of pneumonia in immobilized patients” (Inspire Pharmaceuticals, Inc., priority 1996, dated 2004).
Like-named read-outs stand apart in the source and are kept apart here.

Assays:
healthy adult ewes = assay: Mucociliary clearance study, 99mTc-HSA clearance by gamma camera; type: in vivo, sheep; conditions: 400 μmole nebulized; initial results n=2; compared to saline control
Method: In this study healthy adult ewes were given 99 mTc-labeled human serum albumin (99 mTc-HSA) via a nebulized aerosol. The 99 mTC-HSA (20 mCi) was administered over 5 min through a nasotracheal tube introduced under local anesthesia with 2% lidocaine. After administration of the 99 mTc-HSA, the animals were given a test compound: either UTP or U2P4. Test compounds were administered by nebulization in a volume of 4 mL over a period of 10-12 min. The test compounds were given at a dose of 400 μmole. After the administration of the test compound, the animals were extubated. Clearance of the radiolabeled particles was monitored with a gamma camera. Measurements were made at 0, 5, 10, 15, 20, 25, 30, 35, 40, 45, 50, 55, 60, […], 90, 105 and 120 min.

conscious adult ewes = assay: Trachael mucus velocity (TMV) study, fluoroscopy of radiopaque disks; type: in vivo, sheep; conditions: for maximal effect on tracheal mucus velocity: 400 μmole (4 ml of 10^−1M) nebulized, mean±standard error, n=6, 15 min after administration; for effect on tracheal mucus velocity: doses 4 to 400 μmole; for effect on tracheal mucus velocity / duration of significant effects on TMV after administration / time of maximal effect on TMV after administration: nebulized; for duration of significant effects on TMV after administration: highest dose (400 μmole); for time of maximal effect on TMV after administration: adult ewes
From the text: The effects of UTP and U2P4 on trachael mucus velocity (TMV) were studied using the following procedures: The nasal passages of conscious adult ewes were anesthetized with a 2% lidocaine solution. After local anesthesia was produced, a modified endotracheal tube 7.5 mm was placed such that the cuff was just below the vocal cords (verified by fluoroscopy). Inspired air was warmed and humidified. The cuff of the endotracheal tube was inflated only during administation of the test compound to minimize possible impairment of TMV by the cuff. Test compounds were administered by nebulization in a volume of 4 mL over a period of 10-12 min. TMV was measured by fluroscopy. Ten to twenty radiopaque disks (Teflon®/bismuth trioxide; 1 mm diameter, 0.8 mm thick, weighing 1.8 mg) were introduced into the trachea through a modified suction catheter with a puff of compressed air (3-4 L/min). Velocities of the individual disks were recorded on videotape from a portable image intensifier unit. Individual disk velocities were calculated by measuring the distance traveled by each disk during a 1 min observation period. Values reported are the means of the individual disk velocities. A collar was worn by the sheep which was used as a standard to correct for magnification errors inherent in the fluoroscope.

[1] = system: human nasal epithelial cells; conditions: cited from earlier work
[2] = system: goblet cells in human airway epithelial explants; conditions: tissues from healthy individuals and patients with CF; cited from earlier work
[3] = system: anesthetized and ventilated dogs; conditions: cited from earlier work
[4] = system: cultured human epithelial cells; conditions: cells from normal adult humans and CF patients; cited from earlier work
normal volunteers = conditions: acute; cited from earlier work

| SMILES | clearance of radiolabeled particles (99mTc-HSA) (healthy adult ewes) | maximal effect on tracheal mucus velocity (conscious adult ewes) | effect on tracheal mucus velocity (conscious adult ewes) | duration of significant effects on TMV after administration (conscious adult ewes) | time of maximal effect on TMV after administration (conscious adult ewes) | Cl- secretion ([1]; cultured nasal epithelial cells from cystic fibrosis (CF) patients) | Cl- secretion ([1]; normal human nasal epithelial cells, apical application) | mucin secretion by goblet cells [2] | effects on peak inspiratory airway pressure, mean pulmonary artery pressure, heart rate, cardiac output, thoracic aortic pressure, electrocardiogram, arterial blood gases ([3]; aerosol, 10^−2 M and 10^−1 M in nebulizer) | changes in mean pulmonary artery pressure, heart rate, cardiac output, mean arterial pressure ([3]; intravenous, sequential doses 0.1, 1, 3 and 5 mmoles/kg infused over 10 minutes) | cilia beat frequency [4] | improvement of mucociliary clearance (MCC) (normal volunteers) |
| --- | --- | --- | --- | --- | --- | --- | --- | --- | --- | --- | --- | --- |
| O=c1ccn([C@@H]2O[C@H](COP(=O)(O)OP(=O)(O)OP(=O)(O)OP(=O)(O)OC[C@H]3O[C@@H](n4ccc(=O)[nH]c4=O)[C@H](O)[C@@H]3O)[C@@H](O)[C@H]2O)c(=O)[nH]1 [U2P4, P1,P4-di(uridine-5′)tetraphosphate] | promote clearance of the radiolabeled particles | 144±9 % of baseline | significant dose-related effects | ≤ 2 h | 15 min |  |  |  |  |  |  |  |
| O=c1ccn([C@@H]2O[C@H](COP(=O)(O)OP(=O)(O)OP(=O)(O)O)[C@@H](O)[C@H]2O)c(=O)[nH]1 [UTP, uridine 5′-triphosphate] | promote clearance of the radiolabeled particles | 125±7 % of baseline | significant dose-related effects | up to 4 h | 15 min | This response was also observed | increased Cl- secretion in a concentration-dependent manner | increase the rate and total amount of mucin secretion | no significant effects | no significant changes | increase in cilia beat frequency | 2.5 fold |
